Results: patent US12318401B2, “Injectable shear-thinning hydrogel containing therapeutic agent for enhanced tumor therapy” (MAYO FOUNDATION FOR MEDICAL EDUCATION AND RESEARCH, priority 2021, dated 2025)

Tested on: B16F10 melanoma tumor cells
Experiment: In vivo anti-cancer efficacy in melanoma tumor model
Set-up: species or system C57B1/6J mice
Conditions: subcutaneous B16F10 melanoma in mice
Description: Finally, in vivo anti-cancer efficacy of DOX-STB was analyzed in a melanoma tumor model made by subcutaneous injection of B16F10 melanoma tumor cells into C57B1/6J mice (FIG. 7A).

Structure (SMILES): COc1cccc2c1C(=O)c1c(O)c3c(c(O)c1C2=O)C[C@@](O)(C(=O)CO)C[C@@H]3O[C@H]1C[C@H](N)[C@H](O)[C@H](C)O1 [DOX, doxorubicin]
- tumor size in gross: tumor size decreased
